From ChEMBL document CHEMBL1149861, “Inhibition of 15-lipoxygenase-catalysed oxygenation of arachidonic acid by substituted benzoic acids” (Bioorg Med Chem, 2008)

The molecules below were run on Glycine max (assay: Inhibition of soybean 15-lipoxygenase).
For `O=C(O)c1cccc(O)c1`, the inhibition was 46%. Work on `O=C(O)c1ccccc1` yielded an inhibition of 51.6%. `O=C(O)/C=C/c1ccc(O)c(O)c1` was tested, and the inhibition was 36.2%. `O=C(O)c1cc(O)cc(O)c1` gave an inhibition of 58.1%. `O=C(O)c1cc(O)ccc1O` gave an inhibition of 49.9%. For `O=C(O)c1cccc(O)c1O`, the inhibition was 47%. For `O=C(O)c1ccccc1O`, the inhibition was 48.4%. `O=C(O)c1ccc(O)cc1O` gave an inhibition of 47.7%. Work on `COc1cc(C(=O)O)ccc1O` yielded an inhibition of 45.4%. Molecule `O=C(O)c1c(O)cccc1O` has an inhibition of 21.2%. `O=C(O)c1ccc(O)c(O)c1` was tested, and the inhibition was 73.3%. For `O=C(O)c1ccc(O)cc1`, the inhibition was 47.6%. Work on `O=C(O)c1cc(O)c(O)c(O)c1` yielded an inhibition of 60.5%.
